Data on four compounds can be found in US20230099822A1, “MR1 LIGANDS AND PHARMACEUTICAL COMPOSITIONS FOR IMMUNOMODULATION” (UNIVERSITÄT BASEL, priority 2020, published 2023).

Assay [1] concerns tumor-infiltrating T cells from lung cancer biopsies. The assay can be described thus: Activation of MR1-M3ADE tetramer-sorted TIL lines. To be noted: A375-MR1 cells with or without M3ADE; TCR downregulation, IFN-γ. The assay is classed as cell-based, human. Here is the method:
Tissue biopsy samples derived from small cell lung tumors that were digested with media containing Accutase (Innovative Cell; Cat #AT-104), Collagenase IV 200 U/mL (Worthington; Cat #LS004189), DNAse I 0.5 mg/mL (Sigma-Aldrich Cat #D5025) and Hyaluronidase 50 mg/mL (Sigma; Cat #H6254) for 1 hour at 37° C. Digested material was passed through a […] cell strainer and erythrocytes were lysed before being frozen and stored in liquid nitrogen. After thawing, TILs were rested for 2 days prior to co-culture with A375-p2mKO-MR1 cells in a ratio of 1:1 and in the presence of 50 μM M3ADE. On day 5, human rIL-2 (5 U/mL) was added to the cultures for a further 5 days, and expansion in this manner was repeated 3 times. Cells were then stained with MR1-M3ADE tetramer, anti-CD3, anti-CD4 and anti-CD8 mAbs, and tetramer positive cells were sorted into a bulk line before functional experiments.
The inventors isolated TILs from non-small cell-lung-cancer biopsies from two patients and co-cultured them with A375-MR1 cells loaded with M3ADE, in order to expand MR1T cells. […] The inventors measured the extent of MR1T-cell activation via TCR downregulation, which occurred only in the presence of […] M3ADE-loaded A375-MR1 cells, and was prevented by anti-MR1 blocking mAbs (FIG. 14C, donor 840, and FIG. 14D, donor 895). […]

Assay [2] has as its target T1, MR1 surface expression on THP-1 MR1 cells (Homo sapiens, UniProt Q95460).
T1 construct: expressed in transfected cells; host or cells: THP-1 (ATCC TIB-202) stably expressing MR1 (THP1-MR1)
The assay can be described thus: Cell surface MR1 modulation on APCs (flow cytometry, anti-MR1 mAb 26.5). The assay is classed as cell-based. The protocol:
[…] […] For each condition, net MFI was calculated subtracting isotype MFI from anti-MR1 MFI and fold change of cells treated with synthetic molecules over cells treated with vehicle was calculated.

In assay [3] the test system is MR1T cell clones. Nature of the assay: MR1T cell activation assay with THP-1 cells incubated with compounds (cytokine ELISA). The assay is classed as cell-based, human. Here is the method:
MR1T cells (5×10^4/well unless otherwise indicated) were co-cultured with the indicated APCs (10^5 cells per well unless otherwise indicated) for 18 h in 120 μL volume in triplicate.
When nucleobases, nucleosides or nucleotides (all 250 μM) and synthetic compounds M3ADE, OPdA, M1G or OPdC were used to stimulate T cells, the THP-1 cells (10^5/well) were cultured 2 h with the indicated molecules or medium only, prior to T-cell addition. When a single concentration of synthetic antigens was used, 100 μM OPdA, 100 μM OPdC and 13 μM M1G were used for all clones, while 100 μM M3ADE was used for all clones except DGB129, AC1A4, AC1B76 and AVA46 for which 1 μM was used.
(In an ELISA, binding on a coated surface is turned into a signal by an enzyme label.)

For assay [4], the system named is MR1T cell clones. Nature of the assay: MR1T cell activation assay with treated and fixed A375-MR1 cells. The assay is classed as cell-based, human. To be noted: 6 h incubation before fixation; clones TC5A87 and DGB129 (FIG. 9C, D).
The test system of assay [5] is MR1T cell clones AVA34, AC1A4 and MAIT clone MRC25. Nature of the assay: MR1 tetramer staining of T cell clones. The assay is classed as binding, human. The protocol:
Correct protein conformation was confirmed by performing a plate-bound activation of the MR1T cell clone DGB129. Refolded MR1-compound protein was serially diluted in PBS (1.5-100 μg/mL) and added to a high-protein-binding plate (Nunc, Cat #439454) for 2 h at 37° C. The wells were washed thoroughly with PBS before addition of 5×10^4 cells that were left overnight at 37° C. IL-13 ELISA was then used as an activation readout. The functional monomer was then biotinylated using BirA-500 biotinylation kit (Avidity, Cat #Bulk BirA) overnight at 4° C. Excess biotin was removed using S75 10/30 (GE Healthcare, 29148721) gel filtration before tetramerization with phycoerythrin (PE) streptavidin (Prozyme, Cat #P JRS25) in a 4:1 molar ratio. As control MR1 tetramers, human MR1-5-OP-RU and human MR1-6-FP labelled with APC, PE or AlexaFluor488 were used (The MR1 tetramer technology was developed jointly by Dr. James McCluskey, Dr. Jamie Rossjohn, and Dr. David Fairlie, and the material was produced by the NIH Tetramer Core Facility as permitted to be distributed by the University of Melbourne). […]
Samples were acquired on LSR Fortessa flow cytometer with the FACS Diva software (Becton Dickinson). […] When PBMCs were analyzed, CD14^+ and CD19^+ cells were excluded by staining with fluorescent antibodies detected in the same channel as the Live/Dead staining. All data was analyzed using FlowJo (LLC).

For assay [6], the system named is MR1T cell clones. Nature of the assay: Activation assay with plate-bound soluble MR1. The assay is classed as cell-based, human. To be noted: IL-13 (FIG. 4). The protocol:
Recombinant human P2m-MR1-Fc was produced in CHO-K1 cells as previously described (Lepore et al., 2017) and 4 μg/mL were coated onto 96 wells plates (Nunc, Cat #439454) for 18 h at 4° C. Plate-bound MR1 was then washed twice with wash buffer (150 mM NaCl, 20 mM Tris and 2% Glycerol, pH 5.6) to remove bound antigens. Then, the synthetic antigens (M3ADE, OPdA, M1G and OPdC) were added at the indicated concentrations and incubated for 6 h at room temperature (RT). Unbound antigens were washed twice with PBS before the addition of excess PBS. In some experiments, bacteria-produced and refolded MR1-M3ADE protein was serially diluted in PBS and added to a high protein binding plate (Nunc, Cat #439454) for 2 h at 37° C. then washed twice and used in the stimulation assay. Indicated MR1T cell clones ([…]) were added and supernatants were collected after 18 h. Released cytokines were detected by ELISA. Recombinant human P2m-MR1-Fc was produced in CHO-K1 cells as previously described and 4 μg/mL were coated onto 96 wells plates. Antigens produced by CHO-K1 cells were removed by washing twice with wash buffer (150 mM NaCl, 20 mM Tris and 2% Glycerol, pH 5.6). […]
Correct protein conformation was confirmed by performing a plate-bound activation of the MR1T cell clone DGB129. […] IL-13 ELISA was then used as an activation readout. […]

Values joined by “and” are separate entries in the source; they are usually repeats but may differ in a detail not shown here. Equal entries are not always repeated. “Also recorded” adds a separate entry of the source.

T1 sequence (Q95460 23-341): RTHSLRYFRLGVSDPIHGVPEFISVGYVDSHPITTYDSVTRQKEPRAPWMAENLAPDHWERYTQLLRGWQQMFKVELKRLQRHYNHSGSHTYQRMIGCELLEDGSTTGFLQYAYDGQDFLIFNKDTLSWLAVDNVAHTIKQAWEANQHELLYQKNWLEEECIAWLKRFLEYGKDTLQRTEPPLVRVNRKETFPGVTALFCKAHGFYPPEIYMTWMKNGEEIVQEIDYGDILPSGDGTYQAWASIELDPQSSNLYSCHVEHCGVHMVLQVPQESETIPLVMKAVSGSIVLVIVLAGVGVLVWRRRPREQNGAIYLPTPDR
T1 sequence (P61769 21-119 partner): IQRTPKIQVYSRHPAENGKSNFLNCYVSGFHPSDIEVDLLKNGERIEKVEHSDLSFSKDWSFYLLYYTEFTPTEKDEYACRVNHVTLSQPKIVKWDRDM

Take `O=CC1=COC2CC1C(C=O)=CN2c1ncnc2[nH]cnc12` (centres unmarked) [Cmpd 13, 8-(9H-purin-6-yl)-2-oxa-8-azabicyclo[3.3.1]nona-3,6-diene-4,6-dicarbaldehyde]: in assay [1], the “reactivity of tetramer-positive TIL cells, donor 895” value is listed as “reacted only to M3ADE-loaded A375-MR1 cells” and the “reactivity of tetramer-positive TIL cells, donor #840” value was “irrespective of the presence of M3ADE”. Moreover, the MRI upregulation entry in assay [2] (THP-1 MR1 cells, 3 h at 37° C., 3 doses each) is reported as “YES”. Also, the “cell surface MR1 upregulation on APCs (in words)” value in assay [2] (pulsed APC / THP1-MR1 cells) is reported as “most efficient in increasing MR1 surface expression”. In assay [3], the “Reactive T cells isolated” value was “YES”, the “activation of MR1T clone AC1A4 by adduct” value was “activated” and the “potency among the synthesized adducts” value was “highest potency”. In assay [3] (M1G or M3ADE added to clones QY1A16 and QY1C3, respectively), the “response to THP-1 cells when adduct added” value is reported as “significant decreased response”. Further, the “activation of MR1T clone AVA34 by compound” value in assay [3] (THP-1 / MR1+ APCs loaded with compound, listed as M3ADE) is “specifically activated; also recorded: reacted”. Further, the “number of MR1T clones significantly stimulated” value in assay [3] (fourteen randomly selected MR1T clones, THP-1 cells, IFN-γ (FIG. 12B), listed as M3ADE) was “six and 6/14”. The “IL-13 release by AVA34 cells” value in assay [3] (toward THP-1 cells in the presence of compound (FIG. 5b)) is listed as “IL-13 release”.

As for `O=CC[C@@H](O)[C@H](O)[C@H](O)CO` [deoxyglucose, 2-deoxy-D-Glucose], the “MR1T-cell stimulatory capacity of pulsed and fixed A375-MR1 cells” value in assay [4] was “abolished”.

“MR1-6-FP tetramers: control MR1 tetramer, human MR1-6-FP, produced by the NIH Tetramer Core Facility”: the “tetramer staining of MR1T clone AVA34” value in assay [5] is listed as “not”.

With “MR1-M3ADE monomers: human recombinant soluble MR1 refolded in vitro in the presence of M3ADE”, the “stimulation of clone DGB129 by refolded MR1-M3ADE monomers” value in assay [6] was “stimulated”.
